Structure (SMILES): COc1ncc(C)cc1Nc1cc2c3c(c1)[C@@H]1CNCC[C@@H]1N3CCOC2 [Example 172, (7bR,11aS)-N-(2-Methoxy-5-methyl-3-pyridinyl)-1,2,7b,8,9,10,11,11a-octahydro-4H-[1,4]oxazepino[6,5,4-hi]pyrido[4,3-b]indole-6-amine]
- melting point: 122 to 124 °C

Structure (SMILES): CCOc1ncc(C)cc1Nc1cc2c3c(c1)[C@@H]1CNCC[C@@H]1N3CCOC2 [Example 173, (7bR,11aS)-N-(2-Ethoxy-5-methyl-3-pyridinyl)-1,2,7b,8,9,10,11,11a-octahydro-4H-[1,4]oxazepino[6,5,4-hi]pyrido[4,3b]indole-6-amine]
- melting point: 59 to 68 °C

Reference: US6849619B2, “Substituted pyridoindoles as serotonin agonists and antagonists” (Bristol-Myers Squibb Company, priority 2000, dated 2005)
